Laboratory results from ChEMBL document CHEMBL3507680, “University of Dundee, Gates Library screen for HepG2 cell viability”.

Assay: Human HepG2 cell viability assay in 384 well format
Assay type: toxicity, cell-based
Set-up: dose 125 nL, time 70.5 hour; cytotoxicity at 70.5 h: concentration not given beside the values
Conditions: HepG2 cells, read-out: Inhibition

| SMILES | cytotoxicity at 70.5 h [%] |
| --- | --- |
| COc1ccccc1CNC(=O)CS(=O)(=O)Cc1ccccc1 | -3.93 |
| O=C(COc1ccccc1)N1CCC[C@]2(C[C@H](OCC3CC3)CO2)C1 | -7.58 |
| CCO[C@@H]1CO[C@@]2(CCCN(C(=O)c3ccc(OC)c(F)c3)C2)C1 | 9.35 |
| CS(=O)(=O)NC[C@]12COC[C@H]1CN(C(=O)c1ccoc1)C2 | -3.34 |
| O=C1CCCN1CC1CN(C(=O)CC2CCCC2)Cc2nccn2C1 (stereo not given) | -8.43 |
| CCC1=N[C@@]2(CC[C@@H]3CN(S(=O)(=O)CC)C[C@@H]32)C(=O)N1CC(C)C | -1.65 |
| O=C(NCC1CC1)C1CN(C(=O)c2ccncc2)CC12CCOCC2 (stereo not given) | 3.6 |
| O=C(NCC1OCCc2cn(CC3CC3)nc21)c1ccsc1 (stereo not given) | 47.4 |
| Cn1cccc1CN1CCC2(CCCN(C(=O)Cc3cccnc3)C2)C1 (stereo not given) | 24.8 |
| c1csc(CN2CC[C@H]3C[C@H](c4ccncn4)O[C@@H]3C2)c1 | -13.1 |
| Cn1cc(C(=O)N2C[C@@H]3COC[C@]3(COCc3cccnc3)C2)cn1 | -12.3 |
| COCCC(=O)N1C[C@@H]2COC[C@]2(COCc2cccnc2)C1 | -13.6 |
| CNC(=O)c1cc2c(nc1NCC1CC1)CCN(S(=O)(=O)C1CC1)CC2 | 2.84 |
| O=C(c1ccc[nH]1)N1CCCC2(CCN(c3ccsc3)C2=O)C1 (stereo not given) | -11.6 |
| O=C(c1ccsc1)N1CC[C@H]2C[C@@H](c3nnc(C4CC4)o3)O[C@@H]2C1 | -12.7 |
| Cc1nn2c(=O)/c(=C\c3cccs3)sc2nc1=O | -5.48 |
| CCn1cc(CN(C)S(=O)(=O)c2ccc(C)c(C)c2)cn1 | 0.0869 |
| COc1ccc(CCC(=O)N(C)Cc2c(C)nn(C)c2C)cc1 | 1.57 |
| CC(C(=O)NC1CCN(C)CC1)n1nc(C(F)(F)F)c(Cl)c1C1CC1 (stereo not given) | 11.6 |
| Cc1nn(CC(=O)Nc2ccon2)cc1Br | -10.2 |
| CCOC1(C)C(=O)c2ccccc2N1Nc1ccccc1C(=O)CC (stereo not given) | -14.4 |
| O=C(CCCC(=O)NCc1cccc(Br)c1)NCCN1CCCC1 | 1.2 |
| COc1cc(CNc2ccc(Cl)cc2)ccc1OCC(=O)O | -19.8 |

| SMILES | cytotoxicity at 70.5 h [%] |
| --- | --- |
| O=C(COCC(=O)N(c1ccccc1)c1ccccc1)N1CCCCC1 | 19.2 |
| COc1cc(CNc2ccccc2Cl)ccc1OCC(=O)O | 19 |
| CCN1CCN(S(=O)(=O)c2cc(C)c(C)cc2Br)CC1 | -6.61 |
| CC(C)C(=O)Nc1cccc(C(=O)Nc2ccccn2)c1 | -25.2 |
| Cc1cc(C)cc(NC(=O)Nc2c(O)oc3ccccc3c2=O)c1 | -6.68 |
| CCOC(=O)c1sc(NC(=O)C(C)(C)C)c(C#N)c1C | 41.6 |
| O=C(NCCCN1CCOCC1)c1cccc(OCc2ccccc2)c1 | -2.84 |
| Nc1nnnn1NCc1ccccc1C(F)(F)F | -8.4 |
| CN(C)c1ccc(CC2CCN(c3cnccn3)C2)nn1 (stereo not given) | -8.95 |
| NC(=O)CN1CCCCC1c1ccc(-n2ccnc2)nc1 (stereo not given) | -3.85 |
| Cc1cc(N2CCOC(c3ccncn3)C2)ncn1 (stereo not given) | -0.0886 |
| CN(C)C(=O)c1cccc(C2CCN(c3ncccn3)CC2)n1 | -4.03 |
| Cc1ccnc(NC(=O)c2cncc(C3CCNCC3)n2)c1 | -10.4 |
| COc1ccc(CC2CN(C(=O)c3coc(C)n3)CCO2)cc1 (stereo not given) | -9.96 |
| Cc1nc(C(=O)N2CCOC(Cc3ccc(F)cc3)C2)co1 (stereo not given) | -3.27 |
| CC(=O)N1CCC(c2[nH]ncc2S(C)(=O)=O)CC1 | -5.52 |
| Cc1nccc(CC2COCCN(c3cnccn3)C2)n1 (stereo not given) | 22.7 |
| Cc1c(NC(=O)CN2CCC(Oc3cnccn3)CC2)cnn1C | -3.61 |
| Cc1nonc1CN(C)Cc1cnn(-c2ccc(Cl)cc2)c1 | -3.48 |
| O=C(CC1CCN(CCc2ccccc2)CC1)NC1CCOCC1 | -1.43 |
| O=C(NCc1ccc2c(c1)OCO2)[C@@H]1C=CCN1c1ncccn1 | -1.63 |
| O=C(NCc1ccc2c(c1)OCO2)[C@H]1C=CCN1c1ncccn1 | -4.63 |
| Cc1nn(C)cc1C1=NS(=O)(=O)N(C)C(C(=O)Nc2ccc(Cl)cc2)=C1 | 1.32 |

| SMILES | cytotoxicity at 70.5 h [%] |
| --- | --- |
| Cc1cc(-c2ccc(=O)n(C3CCN(C(=O)C4CC4)CC3)n2)c(C)o1 | -2.33 |
| Cc1cccc(Nc2ccc(C3CCCCN3)cn2)n1 (stereo not given) | 4.51 |
| Cc1cc(C)nc(Nc2ccc(C3CCCCN3)cn2)n1 (stereo not given) | 18.8 |
| c1cnc(Nc2ccc(C3CCCCN3)cn2)cn1 (stereo not given) | -5.51 |
| Cc1cc(N2CCC(Cc3ccncc3)C2)ncn1 (stereo not given) | -3.38 |
| CC(C)N1CCC(c2cccc(C(=O)N(C)C)n2)CC1 | 24.4 |
| CN(C)c1ccc(CC2CCCN(c3cnccn3)C2)nn1 (stereo not given) | -6.12 |
| CCn1cc(S(=O)(=O)N2CCCC3(CC=CNC3=O)C2)c(C)n1 (stereo not given) | -1.52 |
| Fc1cc(F)cc(CN2CCC(c3cc4ncccc4cn3)CC2)c1 | 1.34 |
| CCCn1cc(C(=O)NCc2nnc(-c3ccc(C)nc3)o2)c(C)n1 | -1.21 |
| Cc1nc(N(C)C)cc(C2(C)CCNCC2)n1 | -1.8 |
| Cc1nc(C2CCN(C(C)C)CC2)sc1Br | -2.12 |
| CNc1cccc(C2CN(C(=O)CNS(C)(=O)=O)CCO2)n1 (stereo not given) | 13 |
| CCCn1ncc(CN(Cc2cccnc2)Cc2cccs2)c1C | 21.4 |
| Cc1nccnc1CCC1COCCN1C(=O)CCc1c(C)noc1C (stereo not given) | 15.5 |
| O=C(c1ccc(=O)[nH]n1)N1CCCC(O)(CN2CCC(F)(F)CC2)CC1 (stereo not given) | -8.65 |
| COc1ccccc1CN1CCCC(Cc2nccnc2N)C1 (stereo not given) | -8.24 |
| CN(C(=O)c1ccccc1F)[C@@H]1CC[C@@H](O)[C@@H]1O | -5.24 |
| CC(=O)N1CCOC(c2cncc(CCC(=O)N(C)C)n2)C1 (stereo not given) | 5 |
| CC(C)c1nccn1-c1nccnc1C1CCCN1Cc1ccccc1 (stereo not given) | -6.32 |
| C[C@@H]1CN2C[C@H](O)CC2CN1Cc1ccncc1 (stereo not given in full) | -3.16 |
| O=C(NCC1(O)COCCN(Cc2cccc(O)c2)C1)c1ccccn1 (stereo not given) | -5.55 |
| Cc1cc(N2CCC(Cc3cccnc3)C2)ncn1 (stereo not given) | -3.49 |

| SMILES | cytotoxicity at 70.5 h [%] |
| --- | --- |
| NCc1cnn(-c2ccccc2C(=O)N2CCCC(C(N)=O)C2)c1 (stereo not given) | -2.72 |
| Cc1cc(-c2cncnc2)nc(C2CCCN2S(C)(=O)=O)n1 (stereo not given) | -2.87 |
| CC(C)OCC(=O)N1CCC(c2ncncc2-c2ccnc(N)c2)C1 (stereo not given) | -5.98 |
| CCC(=O)N1CCCC1c1nc(N(C)C)ncc1-c1ccc(Cl)cc1 (stereo not given) | 2.05 |
| Cc1ncsc1CN1CCOC(C)(C(=O)N2CCOCC2)C1 (stereo not given) | -2.94 |
| Cc1cccc(CN2CCCC2c2cncc(Nc3nncs3)n2)c1 (stereo not given) | 2.33 |
| CNc1cc(C2CCCN2C(=O)CCc2ccccc2F)ccn1 (stereo not given) | -2.87 |
| Cc1nc(C)c(C(=O)N2CCCC2(C)C(=O)NC2CCCC2)o1 (stereo not given) | 8.88 |
| O=C1CN(Cc2ccc3ccccc3n2)CCN1C1CCCC1 | -1.73 |
| CCC(=O)N1CCC(c2ncncc2C)CC1 | -1.94 |
| OCC(CO)N1CCC(c2nccnc2Nc2cnccn2)CC1 | -2.76 |
| CC(C)C(C(=O)O)c1cccc(Cl)c1 (stereo not given) | -7.66 |
| CNC(=O)Cc1ccc(NC(=O)NCc2ncc(C)s2)cc1 | 8.85 |
| COc1cc(Br)c(S(=O)(=O)NC(=O)C(C)OC)cc1OC (stereo not given) | -6.11 |
| CCn1cnnc1CCNC(=O)c1ccc(F)c(Br)c1 | -12.1 |
| CCC(=O)c1cccc(S(=O)(=O)NC(C)C#N)c1 (stereo not given) | -11 |
| CN(C)S(=O)(=O)N1CCC(C(O)c2ccc(Cl)cc2)CC1 (stereo not given) | -10.4 |
| CCN(Cc1cccc2c1OCCO2)C(=O)NC(C)(C)C | -2.31 |
| Cc1cc(NC(=O)N2CCC[C@@H]2CO)nn1-c1ccccc1Cl | -7.9 |
| CC(C)Cc1cc(C(=O)N2CCC(N3CCCC3)CC2)cc(O)n1 | -12.3 |
| Cc1cc(NC(=O)N2CCC[C@@H]2CO)nn1-c1cccc(Cl)c1 | -8.23 |
| CC(OCC1CC1)C(=O)Nc1ccn(Cc2ccccc2)n1 (stereo not given) | -7.82 |
| O=C(NCCCn1ccnc1)C1COCC(=O)N1Cc1ccccc1 (stereo not given) | -16 |

| SMILES | cytotoxicity at 70.5 h [%] |
| --- | --- |
| COCC1CCN(C(=O)c2cc(O)nc(CC(C)C)c2)CC1 | -7.27 |
| CC(=O)N(C)C(c1cccnc1)c1ccc(F)c(F)c1 (stereo not given) | 23.1 |
| Cc1ccnc(NC(=O)c2cc(C)oc2C)c1 | 4.63 |
| Cc1ccnc(NC(=O)c2ccc(Cl)o2)c1 | -9.97 |
| CCN(CC(=O)Nc1cc(C(C)(C)C)no1)Cc1ccc(Cl)s1 | -3.4 |
| O=S(=O)(CCCn1cncn1)Cc1ccc(F)cc1Cl | -8.31 |
| Cc1cnc(C(=O)NCC2Cc3ccccc3O2)cn1 (stereo not given) | 1.1 |
| CN1CCCc2cc(-c3cncn3CCNC3CCS(=O)(=O)C3)ccc21 (stereo not given) | -4.36 |
| O=S1(=O)CCC(NCCn2cncc2-c2ccc3c(c2)CCCO3)C1 (stereo not given) | -8.18 |
| c1cncc(CNCc2cccs2)c1 | 26 |
| Fc1ccc(F)c(CN2CCC(c3cc4ncccc4cn3)CC2)c1 | 4.59 |
| Fc1cccc(CN2CCC(c3cc4ncccc4cn3)CC2)c1F | 4.71 |
| NCC1CCC(c2c(C(=O)NCCO)sc3ccccc23)CC1 (stereo not given) | 16.1 |
| CCS(=O)(=O)N1CCc2c(nc(C3CCCN3)nc2NC)C1 (stereo not given) | 18.6 |
| NC(=O)CCc1cccc(C2CCNCC2)n1 | 1.83 |
| COCCNC(=O)C(C)N1CCN(C)CC1 (stereo not given) | -5.18 |
| Cc1cccc(CN2CCC3(CCCN(C(=O)c4ccsc4)C3)C2=O)n1 (stereo not given) | 5.46 |
| CNC(=O)c1cc2c(nc1N(C)C)CCN(S(=O)(=O)C1CC1)CC2 | 20.2 |
| O=C(c1cccnc1)N1CCC2(CC1)CCN(c1ccsc1)C2=O | -4.42 |
| Cc1noc([C@H]2C[C@@H]3CCN(CC4CC4)C[C@H]3O2)n1 | -7.86 |
| CNC(=O)c1cc2c(nc1N(C)C)CCN(S(=O)(=O)CC(C)C)CC2 | -12.2 |
| Cn1cc(CN2C[C@@H]3CN(Cc4ccoc4)CCO[C@@H]3C2)cn1 | -3.44 |
| CCOC(=O)[C@]12CCCN(Cc3nccs3)C[C@H]1CN(CCN(C)C)C2 | -10.1 |
